Key:
[1] = tested on: Drosophila melanogaster; assay: Polymorph lethality, polyethylene glycol coated crystalline thin film; type: in vivo; details: for average knockdown time / median knockdown time (KT50): polyethylene glycol coated crystalline film (2.2*2.2 cm^2)
Description: FIGS. 7A-7B are a lethality comparison of the two forms of deltamethrin. FIG. 7A is a graph depicting the velocities of fruit flies exposed to crystalline films (2.2*2.2 cm^2) of deltamethrin Form I and II; FIG. 7B is a comparison of Drosophila melanogaster knockdown times on crystalline films (2.2*2.2 cm^2) of deltamethrin Form I and Form II.
The knockdown times for neat thin films are too short to allow a valid comparison of their lethality. Therefore, thin films of deltamethrin Form I and Form II were prepared and partially coated by nebulized polyethylene glycol, producing islands of inert material with a small fraction of the deltamethrin film exposed (FIG. 7B). […] The corresponding average knockdown times and median knockdown times (KT50) are denoted. The average knockdown times for polyethylene glycol coated deltamethrin Form I and Form II crystalline film were 385 minutes and 70 minutes, respectively. The KT50 values were 400 minutes and 61 minutes, respectively (FIG. 7B).
This confirms that Form I dust is transformed to Form II dust by the microwave heating treatment.

[2] = tested on: fruit flies (Drosophila melanogaster); assay: Polymorph lethality, dust, residual exposure method, fruit flies; type: in vivo; details: for average knockdown time / median knockdown time (KT50): 2 mg deltamethrin dust; for average knockdown time / median knockdown time (KT50) / longest survival (no individual survived more than) / onset of hyperactivity: female fruit flies; for longest survival (no individual survived more than) / onset of hyperactivity: 2 mg dust in 35 mm Petri dish
Procedure: (§1) The effect of deltamethrin polymorphs on fruit flies was determined by the residual exposure method. Bruck, D. J.; Bolda, M.; Tanigoshi, L.; Klick, J.; Kleiber, J.; DeFrancesco, J.; Gerdeman, B.; Spitler, H. Laboratory and field comparisons of insecticides to reduce infestation of Drosophila suzukii in berry crops. Pest. Manag. Sci. 2011, 67, 1375-1385. Lethality assays were performed for each powder sample as well as a control. Female fruit flies (Drosophila melanogaster) were temporarily anesthetized by CO2 exposure, then transferred to the 35 mm diameter petri dishes with deltamethrin dust. The dishes were covered with their mating top and the motion of the fruit flies was recorded to establish knockdown time (i.e., the time after which there was no further translational motion).
The lethalities of the two crystalline forms of deltamethrin were compared by exposing fruit flies (Drosophila melanogaster), a well-established model for pesticide development (Schneider, D. Using Drosophila as a Model Insect. Nat. Rev. Genet. 2000, 1, 218-226), to 2 mg of the respective dusts (containing […] deltamethrin Form I or Form II) dispersed evenly in 35 mm-diameter plastic Petri dishes. Each trial was performed in triplicate for each crystalline form, as well as a control.
The motions of fruit flies were monitored by a video camera. A custom designed video process programmer was used to record the onset of hyperactivity and to track the time required for the expiration of the flies, as measured by knockdown. […] (FIG. 5A). Both the onset of hyperactivity and death occurred much later for deltamethrin Form I-exposed flies.
(§2) Lethality was deduced by the standard measurement of knockdown time, defined as time when a fly is immobile in a supine or sideways position for at least one second (i.e., no translational motion). Lindquist, A. W.; Jones, H. A.; Madden, A. H. DDT Residual-type sprays as affected by light. J. Econ. Entomol. 1946, 39, 55-59. Paralyzed flies never recover.
FIGS. 5A and 5B depict the graphs of the lethality comparison of the two forms of deltamethrin, in terms of fly velocities and knockdown times. The corresponding average knockdown times and median knockdown times (KT50) are denoted. The median knockdown time (KT50) for each polymorph was determined from multiple trials using twenty female flies each. KT50 is defined as the time required to render 50 percent of the insects motionless. Kawada, H.; Dida, G. O.; Ohashi, K.; Komagata, O.; Kasai, S.; Tomita, T.; Sonye, G.; Maekawa, Y.; Mwatele, C.; Njenga, S. M.; Mwandawiro, C; Minakawa, N.; Takagi, M. Multimodal pyrethroid resistance in malaria vectors, Anopheles gambiae s.s., Anopheles arabiensis, and Anopheles funestus s.s. in Western Kenya. PLoS One 2011, 6, No. e22574; Limoee, M.; Ladonni, H.; Enayati, A. A.; Vatandoost, H.; Aboulhasani, M. Detection of pyrethroid resistance and cross resistance to DDT in seven field-collected strains of the German cockroach, Blattella germanica (L.) (Dictyoptera: Blattellidae). J Biol. Sci. 2006, 6, 382-387. The average knockdown times for 2 mg deltamethrin dusts with Form I and Form II were 123 minutes and 21 minutes, respectively. The KT50 values were 113 minutes and 20 minutes, respectively (FIG. 5B).

[3] = tested on: yellow fever mosquitos (Aedes aegypti); assay: Polymorph lethality, dust, residual exposure method, Aedes mosquitoes; type: in vivo; details: for average knockdown time / median knockdown time (KT50): 2 mg deltamethrin dust
Procedure: as §1, with “on yellow fever mosquitos (Aedes aegypti)” for “on fruit flies”, “each dust” for “each powder”, “Female Aedes mosquitoes” for “Female fruit flies (Drosophila melanogaster)”, “the 90” for “the 35”, “the mosquitoes” for “the fruit flies”
The lethalities of the two crystalline forms of deltamethrin were compared by exposing yellow fever mosquitos (Aedes aegypti) to 2 mg of the respective dusts (containing […] deltamethrin Form I or Form II) dispersed evenly in 90 mm-diameter plastic Petri dishes. Each trial was performed in duplicate for each crystalline form, as well as a control.
The motions of mosquitoes were monitored by a video camera. A custom designed video process programmer was used to record the onset of hyperactivity and to track the time required for the expiration of the mosquitoes, as measured by knockdown. No Form I-exposed fly survived more than 300 minutes. […] (FIG. 6A). The death occurred much later for deltamethrin Form I-exposed mosquitoes.
as §2, with “mosquito” for “fly”
FIGS. 6A and 6B depict the graphs of the lethality comparison of the two forms of deltamethrin, in terms of mosquito velocities and knockdown times. The corresponding average knockdown times and median knockdown times (KT50) are denoted. The median knockdown time (KT50) for each polymorph was determined from multiple trials using twenty female mosquitoes each. KT50 is defined as the time required to render 50 percent of the insects motionless. Kawada, H.; Dida, G. O.; Ohashi, K.; Komagata, O.; Kasai, S.; Tomita, T.; Sonye, G.; Maekawa, Y.; Mwatele, C.; Njenga, S. M.; Mwandawiro, C; Minakawa, N.; Takagi, M. Multimodal pyrethroid resistance in malaria vectors, Anopheles gambiae s.s., Anopheles arabiensis, and Anopheles funestus s.s. in Western Kenya. PLoS One 2011, 6, No. e22574; Limoee, M.; Ladonni, H.; Enayati, A. A.; Vatandoost, H.; Aboulhasani, M. Detection of pyrethroid resistance and cross resistance to DDT in seven field-collected strains of the German cockroach, Blattella germanica (L.) (Dictyoptera: Blattellidae). J. Biol. Sci. 2006, 6, 382-387. The average knockdown times for 2 mg deltamethrin Form I and Form II dust were 202 minutes and 22 minutes, respectively. The KT50 values were 192 minutes and 21 minutes, respectively (FIG. 6B).

[4] = Phase behavior / thermodynamic stability of deltamethrin polymorphs; type: physicochemical
Procedure: Thermodynamic stability of deltamethrin polymorphs was evaluated by the phase transformation behaviors and respective melting points. […] Rarely, transformation from Form II to Form I can be observed between crossed polarizers when spherulites of Form II are in contact with concomitant polycrystalline Form I (FIG. 4A, 4B). Form II fibers grow radially along their <010> direction. […] Upon phase transformation to Form I, the orientation of new grains become misaligned, resulting in a loss of observable birefringence. At room temperature the transformation can be observed by a moving growth front, which advances at a velocity of 0.3 μm/min.

[5] = female Aedes aegypti, 2 mg dust in 90 mm Petri dish

SMILES	average knockdown time [1]	median knockdown time (KT50) [1]	average knockdown time [2]	median knockdown time (KT50) [2]	longest survival (no individual survived more than) [2]	onset of hyperactivity [2]	average knockdown time ([3]; female Aedes aegypti)	median knockdown time (KT50) ([3]; female Aedes aegypti)	longest survival (no individual survived more than) [3, 5]	knockdown times, comparison of the forms ([1]; thin films)	lethality ranking ([2]; dust, fruit flies)	transformation of Form II to Form I on storage ([4]; crystalline film confined between glass slides, 6 months at room temperature)	room temperature stability ranking ([4]; room temperature)	velocity of the growth front of the Form II to Form I transformation ([4]; room temperature, Form II spherulites in contact with polycrystalline Form I)	lethality ranking ([3]; dust, Aedes aegypti)	onset of hyperactivity [3, 5]
CC1(C)[C@H](C(=O)O[C@H](C#N)c2cccc(Oc3ccccc3)c2)[C@@H]1C=C(Br)Br [Form I, (S)-cyano(3-phenoxyphenyl) methyl (1R,3R)-3-(2,2-dibromovinyl)-2,2-dimethylcyclopropane-1-carboxylate, reference compound]	385 min	400 min	123 min	113 min	≤ 210 min	40 min	202 min	192 min	≤ 300 min							
CC1(C)[C@H](C(=O)O[C@H](C#N)c2cccc(Oc3ccccc3)c2)[C@@H]1C=C(Br)Br [Form II, (S)-cyano(3-phenoxyphenyl) methyl (1R,3R)-3-(2,2-dibromovinyl)-2,2-dimethylcyclopropane-1-carboxylate]	70 min	61 min	21 min	20 min	≤ 40 min	as soon as they were exposed	22 min	21 min	≤ 30 min	shorter for Form II than for Form I	more lethal than Form I	did not transform to Form I	Form I> Form II	0.3 μm/min	more lethal than Form I	as soon as they were exposed

From patent US11582971B2, “Crystalline forms of deltamethrin and methods of use thereof” (priority 2019, dated 2023)
